Data on two compounds can be found in ChEMBL document CHEMBL5113529, “Design, Synthesis, and Biological Evaluation of Dual-Target COX-2/CYP51 Inhibitors for the Treatment of Fungal Infectious Diseases” (J Med Chem, 2022).

The test system of assay [1] is Cryptococcus neoformans. Nature of the assay: Antifungal activity against Cryptococcus neoformans ZKCC 2209 assessed as fungal growth inhibition measured after 72 hrs by double dilution method. In kind it is functional.
In assay [2] the test system is Pichia kudriavzevii. Nature of the assay: Antifungal activity against Candida krusei ATCC 6258 assessed as fungal growth inhibition measured after 72 hrs by double dilution method. In kind it is functional.
For assay [3], the system named is Candida albicans. The assay is described as follows: Antifungal activity against Candida albicans ATCC SC5314 assessed as decrease in fungal cell density measured immediately by fluorescence microscopy (reference value: 126%). In kind it is functional. The arrangement: scale not given: the % may be the effect or the level left.
In assay [4] the target is T1, Prostaglandin G/H synthase 2 (Homo sapiens, UniProt P35354).
T1 sequence (P35354 whole entry): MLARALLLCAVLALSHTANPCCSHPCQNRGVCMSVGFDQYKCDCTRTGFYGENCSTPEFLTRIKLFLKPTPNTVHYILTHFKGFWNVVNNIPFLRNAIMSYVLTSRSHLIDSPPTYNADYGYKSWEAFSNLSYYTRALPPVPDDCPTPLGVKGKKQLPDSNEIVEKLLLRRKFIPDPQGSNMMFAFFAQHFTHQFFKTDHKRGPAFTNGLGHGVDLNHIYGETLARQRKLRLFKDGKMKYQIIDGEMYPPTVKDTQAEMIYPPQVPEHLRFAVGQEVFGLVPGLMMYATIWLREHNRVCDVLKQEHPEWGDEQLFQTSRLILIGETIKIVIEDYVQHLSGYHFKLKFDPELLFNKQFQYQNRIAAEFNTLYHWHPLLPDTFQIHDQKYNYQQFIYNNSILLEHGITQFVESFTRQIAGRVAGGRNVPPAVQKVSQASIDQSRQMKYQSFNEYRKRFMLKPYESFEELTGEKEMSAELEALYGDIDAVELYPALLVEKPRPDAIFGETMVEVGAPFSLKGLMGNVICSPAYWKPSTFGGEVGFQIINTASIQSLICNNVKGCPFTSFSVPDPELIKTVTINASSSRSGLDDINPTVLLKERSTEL
Nature of the assay: Inhibition of COX-2 (unknown origin) using arachidonic acid as substrate preincubated for 10 mins followed by substrate addition and measured after 2 mins by immunoassay.

Assay [5] relates to Candida albicans. Nature of the assay: Antifungal activity against fluconazole -resistant Candida albicans 632 assessed as fungal growth inhibition measured after 72 hrs by double dilution method. It counts as functional.
Assay [6] concerns Candida albicans. Nature of the assay: Antifungal activity against fluconazole -resistant Candida albicans 904 assessed as fungal growth inhibition measured after 72 hrs by double dilution method. In kind it is functional.
The subject of assay [7] is Candida albicans. The assay is described as follows: Antifungal activity against Candida albicans ATCC SC5314 assessed as decrease in fungal cell density measured at 48 hrs by fluorescence microscopy (reference value: 258%). The arrangement: scale not given: the % may be the effect or the level left. In kind it is functional.
Assay [8] concerns Aspergillus fumigatus. The assay is described as follows: Antifungal activity against Aspergillus fumigatus KM8001 assessed as fungal growth inhibition measured after 72 hrs by double dilution method. In kind it is functional.
For assay [9], the system named is Candida tropicalis. Nature of the assay: Antifungal activity against Candida tropicalis ATCC 1369 assessed as fungal growth inhibition measured after 72 hrs by double dilution method. It counts as functional.
Assay [10] addresses Prostaglandin G/H synthase 1 (Homo sapiens, UniProt P23219). The assay is described as follows: Inhibition of COX-1 (unknown origin) using arachidonic acid as substrate preincubated for 10 mins followed by substrate addition and measured after 2 mins by immunoassay.
Assay [11] concerns Candida albicans. Nature of the assay: Antifungal activity against fluconazole -resistant Candida albicans 901 assessed as fungal growth inhibition measured after 72 hrs by double dilution method. In kind it is functional.
Assay [12] concerns Candida albicans. The assay is described as follows: Antifungal activity against fluconazole- resistant Candida albicans 17# assessed as fungal growth inhibition measured after 72 hrs by double dilution method. It counts as functional.
In assay [13] the test system is Candida albicans. The assay is described as follows: Antifungal activity against Candida albicans ATCC SC5314 assessed as fungal growth inhibition measured after 72 hrs by double dilution method. It counts as functional.
The target of assay [14] is Lanosterol 14-alpha demethylase (Candida albicans (strain SC5314 / ATCC MYA-2876) (Yeast), UniProt P10613). Nature of the assay: Inhibition of CYP51 in Candida albicans SC5314 using Eburicol as substrate preincubated for 20 mins followed by substrate addition and measured after 4 mins by HPLC analysis. It counts as single protein.
In assay [15] the test system is Candida albicans. The assay is described as follows: Antifungal activity against fluconazole -resistant Candida albicans CaR assessed as fungal growth inhibition measured after 72 hrs by double dilution method. It counts as functional.
Assay [16] deals with Candida albicans. Nature of the assay: Antifungal activity against Candida albicans ATCC SC5314 assessed as induction of ROS production by measuring fluorescence intensity incubated for 12 hrs by KGT010-1 staining based fluorescence microscopy. It counts as functional, organism-based.
In assay [17] the test system is Candida albicans. Nature of the assay: Antifungal activity against Candida albicans ATCC SC5314 assessed as fungal growth inhibition measured after 72 hrs in presence of fluconazole by double dilution method. Particulars: ATCC SC5314, 72 h.
Assay [18] has as its system Cryptococcus neoformans. The assay is described as follows: microbe, parasite or virus in culture. Particulars: ZKCC 2209, 72 h.
Description: Antifungal activity against Cryptococcus neoformans ZKCC 2209 assessed as fungal growth inhibition measured after 72 hrs in presence of fluconazole by double dilution method
Assay [19] concerns Pichia kudriavzevii. The assay is described as follows: microbe, parasite or virus in culture. Particulars: ATCC 6258, 72 h.
Description: Antifungal activity against Candida krusei ATCC 6258 assessed as fungal growth inhibition measured after 72 hrs in presence of fluconazole by double dilution method
The test system of assay [20] is Candida albicans. The assay is described as follows: Antifungal activity against fluconazole- resistant Candida albicans CaR assessed as fungal growth inhibition measured after 72 hrs in presence of fluconazole by double dilution method.
Assay [21] has as its system Candida albicans. The assay is described as follows: microbe, parasite or virus in culture. As to conditions: Candida albicans, 901, 72 h.
Description: Antifungal activity against fluconazole- resistant Candida albicans 901 assessed as fungal growth inhibition measured after 72 hrs in presence of fluconazole by double dilution method
The subject of assay [22] is Aspergillus fumigatus. Nature of the assay: Antifungal activity against Aspergillus fumigatus KM8001 assessed as fungal growth inhibition measured after 72 hrs in presence of fluconazole by double dilution method. Particulars: KM8001, 72 h.
The test system of assay [23] is Candida albicans. The assay is described as follows: Antifungal activity against fluconazole- resistant Candida albicans 17# assessed as fungal growth inhibition measured after 72 hrs in presence of fluconazole by double dilution method.
Assay [24] concerns Candida tropicalis. The assay is described as follows: microbe, parasite or virus in culture. Particulars: ATCC 1369, 72 h.
Description: Antifungal activity against Candida tropicalis ATCC 1369 assessed as fungal growth inhibition measured after 72 hrs in presence of fluconazole by double dilution method
Assay [25] deals with Candida albicans. Nature of the assay: microbe, parasite or virus in culture. As to conditions: Candida albicans, 632, 72 h.
Description: Antifungal activity against fluconazole- resistant Candida albicans 632 assessed as fungal growth inhibition measured after 72 hrs in presence of fluconazole by double dilution method
The test system of assay [26] is Candida albicans. Nature of the assay: microbe, parasite or virus in culture. Particulars: Candida albicans, 904, 72 h.
Description: Antifungal activity against fluconazole- resistant Candida albicans 904 assessed as fungal growth inhibition measured after 72 hrs in presence of fluconazole by double dilution method

Converted amounts (≈) assume the structure as drawn. The source made the active and inactive calls. The calls are words filed in the database; no cut-off is given here.

Chain of Lanosterol 14-alpha demethylase (P10613 whole entry): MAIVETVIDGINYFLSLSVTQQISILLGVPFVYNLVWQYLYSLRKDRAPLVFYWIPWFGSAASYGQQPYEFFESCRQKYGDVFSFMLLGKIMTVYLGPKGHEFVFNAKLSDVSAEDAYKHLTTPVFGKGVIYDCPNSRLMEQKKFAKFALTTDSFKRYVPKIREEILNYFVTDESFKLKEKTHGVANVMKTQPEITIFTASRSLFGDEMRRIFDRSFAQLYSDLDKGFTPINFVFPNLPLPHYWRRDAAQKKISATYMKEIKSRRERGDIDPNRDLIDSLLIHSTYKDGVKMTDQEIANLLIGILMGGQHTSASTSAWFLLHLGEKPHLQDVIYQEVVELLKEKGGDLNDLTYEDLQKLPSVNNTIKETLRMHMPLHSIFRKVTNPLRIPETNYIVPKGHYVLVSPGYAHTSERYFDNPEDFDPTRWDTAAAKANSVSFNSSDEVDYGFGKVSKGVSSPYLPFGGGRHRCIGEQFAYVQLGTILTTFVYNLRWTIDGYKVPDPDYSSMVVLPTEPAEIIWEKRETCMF
Chain of Prostaglandin G/H synthase 1 (P23219 whole entry): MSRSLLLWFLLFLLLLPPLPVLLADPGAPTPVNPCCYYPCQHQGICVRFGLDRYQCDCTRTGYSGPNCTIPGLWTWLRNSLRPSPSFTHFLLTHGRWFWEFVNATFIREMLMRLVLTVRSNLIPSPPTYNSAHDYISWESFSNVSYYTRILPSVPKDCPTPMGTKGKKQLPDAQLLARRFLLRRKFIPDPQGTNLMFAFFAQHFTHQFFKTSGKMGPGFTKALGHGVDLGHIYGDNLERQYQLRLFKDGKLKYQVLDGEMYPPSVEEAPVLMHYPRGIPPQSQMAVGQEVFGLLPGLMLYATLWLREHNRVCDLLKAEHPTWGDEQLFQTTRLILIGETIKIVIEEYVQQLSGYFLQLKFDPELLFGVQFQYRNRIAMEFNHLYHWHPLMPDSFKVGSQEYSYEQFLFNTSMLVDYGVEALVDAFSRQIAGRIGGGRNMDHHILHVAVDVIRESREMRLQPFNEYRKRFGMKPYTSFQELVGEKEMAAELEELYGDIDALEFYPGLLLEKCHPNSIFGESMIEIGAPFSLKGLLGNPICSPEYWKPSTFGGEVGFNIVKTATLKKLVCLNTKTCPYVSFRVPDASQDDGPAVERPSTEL

By IC50 is commonly meant the point on the concentration scale where inhibition reaches its midpoint. In the case of `CC(C)OC(=O)[C@@H](Cn1cncn1)NC(=O)[C@@H](C)c1cccc(C(=O)c2ccccc2)c1`, the MIC50 in the assay on Cryptococcus neoformans [1] is 0.25 µg/mL (≈ 0.575 µM); with Pichia kudriavzevii [2], 0.5 µg/mL (≈ 1.15 µM); with Candida albicans [5], over 8 µg/mL; with Candida albicans [6] it was over 8 µg/mL; in the assay on Aspergillus fumigatus [8] it was 4 µg/mL (≈ 9.21 µM); in the assay with Candida tropicalis [9] it was 0.5 µg/mL (≈ 1.15 µM). Also, the MIC50 with Candida albicans [11] stood at 4 µg/mL (≈ 9.21 µM); with Candida albicans [12] it was 4 µg/mL (≈ 9.21 µM); in the assay on Candida albicans [13] it was 0.25 µg/mL (≈ 0.575 µM); in the assay with Candida albicans [15] it was 4 µg/mL (≈ 9.21 µM). The Activity is on record as 141% with Candida albicans [3] and 84% in the assay with Candida albicans [7]. In addition, the IC50 in assay [4] is 3410 nM; in assay [10] it was over 50000 nM; in assay [14] it was 200 nM. Besides, the result with Candida albicans [16] was Active.

Consider `COc1ccc2cc([C@H](C)C(=O)O)ccc2c1` [NAPROXEN], for which the MIC50 came out at 0.25 µg/mL in the assay with Candida albicans [17]; 0.25 µg/mL (≈ 1.09 µM) with Cryptococcus neoformans [18]; 1 µg/mL (≈ 4.34 µM) in the assay on Pichia kudriavzevii [19]; 2 µg/mL with Candida albicans [20]; 4 µg/mL (≈ 17.4 µM) in the assay on Candida albicans [21]; 4 µg/mL in the assay with Aspergillus fumigatus [22]. Further, the MIC50 was found to be 4 µg/mL with Candida albicans [23], 0.5 µg/mL (≈ 2.17 µM) in the assay on Candida tropicalis [24], 4 µg/mL (≈ 17.4 µM) against Candida albicans [25] and 2 µg/mL (≈ 8.69 µM) against Candida albicans [26]. The compound also registered an IC50 in assay [4] of 2390 nM.
